Molecular target: wild type c-kit (Homo sapiens (Human), UniProt P10721)
Assay: MSD Phospho c-Kit (Tyr721) Assay Whole Cell Lysate Kit in SCF-stimulated M-07e cells (pKIT assay, marked *)
Assay type: cell-based
Conditions: Meso Scale Discovery (MSD) assay (values marked *)
Description: The ability of compounds of the disclosure (described herein as test compounds) to inhibit autophosphorylation of wild type c-kit was measures using either a PathScan phospho c-kit (Tyr719) sandwich ELISA (CST #7298) or a Phospho c-Kit (Tyr721) Assay Whole Cell Lysate Kit (MSD: 515DPD/catalog number K15119D-2).
For the MSD Phospho c-Kit (Tyr721) Assay Whole Cell Lysate Kit: M-07e cells were maintained in Iscove's Modified Dulbecco's Medium (IMDM) media supplemented with 10% FBS, 5 ng/ml granulocyte-macrophage colony-stimulating factor (GM-CSF) and 100 units/mL Penicillin-Streptomycin, and grown in a 37° C., 5% CO2 in a humidified tissue culture incubator. M-07e cells were washed with phenol red-free, serum-free, GM-CSF-free IMDM and seeded in the same media at 100,000 cells well in a volume of 50 ul in a 96-well U-bottom plate. The cells were incubated for 4 hours, followed by the addition of test compound at a final DMSO concentration of 0.25% for 60 min at 37° C. to generate an 8-point dose concentration series of test compounds. The cells were stimulated with 50 ng/ml human SCF for 10 min at room temperature. Cells were then lysed by the addition of 16.5 ul of PerkinElmer 5× AlphaLISA Lysis Buffer supplemented with Cell Signaling Technologies protease/phosphatase inhibitor. Lysis was encouraged by shaking at 4° C. for 30 minutes.
25 ul of lysate was transferred to the MSD plate and the plate was shaken at 700 rpm at room temperature for one hour, followed by washing 3 times with Tris wash buffer. Next, 25 ul of detection antibody solution (diluted from 50× stock in antibody dilution buffer) was added. After shaking at 700 rpm at room temperature for one hour, the plate was washed 3 times with Tris wash buffer. The plate was then read on MSD Sector Imager immediately after 150 ul of reading buffer added to each well.
An IC50 was calculated using a 4-parameter logistic nonlinear regression.

Sequence of wild type c-kit (P10721 26-976): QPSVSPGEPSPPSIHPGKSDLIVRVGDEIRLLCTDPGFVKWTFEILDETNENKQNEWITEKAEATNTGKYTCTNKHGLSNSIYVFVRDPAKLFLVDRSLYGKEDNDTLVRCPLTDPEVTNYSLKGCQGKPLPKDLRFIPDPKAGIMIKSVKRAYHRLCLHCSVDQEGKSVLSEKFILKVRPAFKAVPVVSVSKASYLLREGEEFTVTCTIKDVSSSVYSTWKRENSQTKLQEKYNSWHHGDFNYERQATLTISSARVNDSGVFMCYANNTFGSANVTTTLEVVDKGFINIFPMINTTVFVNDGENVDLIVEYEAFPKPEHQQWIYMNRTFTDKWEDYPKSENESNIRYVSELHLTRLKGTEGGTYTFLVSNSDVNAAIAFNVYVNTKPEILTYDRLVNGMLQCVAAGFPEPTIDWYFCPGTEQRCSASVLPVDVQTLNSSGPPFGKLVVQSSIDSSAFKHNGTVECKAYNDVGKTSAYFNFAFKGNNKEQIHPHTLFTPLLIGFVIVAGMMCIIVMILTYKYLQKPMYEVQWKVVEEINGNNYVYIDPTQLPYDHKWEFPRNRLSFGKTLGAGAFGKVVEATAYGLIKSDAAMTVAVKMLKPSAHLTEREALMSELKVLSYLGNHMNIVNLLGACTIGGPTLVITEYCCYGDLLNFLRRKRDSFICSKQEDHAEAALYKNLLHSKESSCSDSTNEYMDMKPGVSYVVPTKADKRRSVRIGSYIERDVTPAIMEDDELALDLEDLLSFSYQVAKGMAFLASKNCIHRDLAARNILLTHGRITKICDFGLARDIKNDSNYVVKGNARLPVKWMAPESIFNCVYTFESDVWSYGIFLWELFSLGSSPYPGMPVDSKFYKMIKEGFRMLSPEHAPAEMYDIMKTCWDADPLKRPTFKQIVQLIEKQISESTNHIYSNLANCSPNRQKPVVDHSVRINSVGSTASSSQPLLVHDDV

Row | SMILES | IC50
1 | Cc1ccc(-c2nnn([C@H](C)C3CC3)n2)cc1NC(=O)c1cnn2ccccc12 (single isomer, unassigned) [Example 38, (S)-N-(5-(2-(1-cyclopropylethyl)-2H-tetrazol-5-yl)-2-methylphenyl)pyrazolo[1,5-a]pyridine-3-carboxamide or (R)-N-(5-(2-(1-cyclopropylethyl)-2H-tetrazol-5-yl)-2-methylphenyl)pyrazolo[1,5-a]pyridine-3-carboxamide] | 7.2 nM
2 | Cc1ccc(-c2nnn(C(C)C3CCOCC3)n2)cc1NC(=O)c1cnn2ccccc12 (single isomer, unassigned) [Example 39, (R)-N-(2-methyl-5-(2-(1-(tetrahydro-2H-pyran-4-yl)ethyl)-2H-tetrazol-5-yl)phenyl)pyrazolo[1,5-a]pyridine-3-carboxamide or (S)-N-(2-methyl-5-(2-(1-(tetrahydro-2H-pyran-4-yl)ethyl)-2H-tetrazol-5-yl)phenyl)pyrazolo[1,5-a]pyridine-3-carboxamide] | 9.1 nM
3 | Cc1ccc(-c2nnn(C3CCC3)n2)cc1NC(=O)c1cnn2ccccc12 [Example 8, N-(5-(2-cyclobutyl-2H-tetrazol-5-yl)-2-methylphenyl)pyrazolo[1,5-a]pyridine-3-carboxamide] | 2.7 nM
4 | Cc1ccc(-c2nnn(C3CC4(C3)CC4(F)F)n2)cc1NC(=O)c1cnn2ccccc12 (single isomer, unassigned) [Example 42, N-(5-(2-((3r,5r)-1,1-difluorospiro [2.3]hexan-5-yl)-2H-tetrazol-5-yl)-2-methylphenyl)pyrazolo[1,5-a]pyridine-3-carboxamide or N-(5-(2-((3s,5s)-1,1-difluorospiro[2.3]hexan-5-yl)-2H-tetrazol-5-yl)-2-methylphenyl)pyrazolo[1,5-a]pyridine-3-carboxamide] | 3.8 nM
5 | Cc1ccc(-n2nnc(C3CN(S(=O)(=O)C4CC4)C3)n2)cc1NC(=O)c1cnn2ccccc12 [Example 188, N-(5-(5-(1-(cyclopropylsulfonyl)azetidin-3-yl)-2H-tetrazol-2-yl)-2-methylphenyl)pyrazolo[1,5-a]pyridine-3-carboxamide] | 2.9 nM
6 | COCCS(=O)(=O)N1CC(c2nnn(-c3ccc(C)c(NC(=O)c4cnn5ccccc45)c3)n2)C1 [Example 189, N-(5-(5-(1-((2-methoxyethyl)sulfonyl)azetidin-3-yl)-2H-tetrazol-2-yl)-2-methylphenyl)pyrazolo[1,5-a]pyridine-3-carboxamide] | 4.9 nM
7 | Cc1ccc(-c2nnn([C@@H](C)c3ccccc3F)n2)cc1NC(=O)c1cnn2ccccc12 [Example 33, (S)-N-(5-(2-(1-(2-fluorophenyl)ethyl)-2H-tetrazol-5-yl)-2-methylphenyl)pyrazolo[1,5-a]pyridine-3-carboxamide] | 2.7 nM
8 | CO[C@H]1C[C@@H](n2nnc(-c3ccc(C)c(NC(=O)c4cnn5ccccc45)c3)n2)C1 [Example 35, N-(5-(2-((1s,3s)-3-methoxycyclobutyl)-2H-tetrazol-5-yl)-2-methylphenyl)pyrazolo[1,5-a]pyridine-3-carboxamide] | 3.8 nM
9 | Cc1ccc(-c2nnn(CC3CC3(F)F)n2)cc1NC(=O)c1cnn2ccccc12 (centres unmarked) [Example 6, N-(5-(2-((2,2-difluorocyclopropyl)methyl)-2H-tetrazol-5-yl)-2-methylphenyl)pyrazolo[1,5-a]pyridine-3-carboxamide] | 4.5 nM
10 | Cc1ccc(-c2nnn(CC3CCOCC3)n2)cc1NC(=O)c1cnn2ccccc12 [Example 3, N-(2-methyl-5-(2-((tetrahydro-2H-pyran-4-yl)methyl)-2H-tetrazol-5-yl)phenyl)pyrazolo[1,5-a]pyridine-3-carboxamide] | 8.4 nM
11 | Cc1ccc(-n2nnc(C3CC3)n2)cc1NC(=O)c1cnn2ccccc12 [Example 152, N-(5-(5-cyclopropyl-2H-tetrazol-2-yl)-2-methylphenyl)pyrazolo[1,5-a]pyridine-3-carboxamide] | 3.6 nM
12 | Cc1ccc(-c2nnn(Cc3ccccc3F)n2)cc1NC(=O)c1cnn2ccccc12 [Example 13, N-(5-(2-(2-fluorobenzyl)-2H-tetrazol-5-yl)-2-methylphenyl)pyrazolo[1,5-a]pyridine-3-carboxamide] | 1.6 nM
13 | COC(=O)N1CC(c2nnn(-c3ccc(Cl)c(NC(=O)c4cnn5ccccc45)c3)n2)C1 [Example 194] | 11.6 nM
14 | CS(=O)(=O)N1CC(c2nnn(-c3ccc(Cl)c(NC(=O)c4cnn5ccccc45)c3)n2)C1 [Example 187] | 6.2 nM
15 | Cc1ccc(-c2nnn(C3CC(F)(F)C3)n2)cc1NC(=O)c1cnn2ccccc12 [Example 5, N-(5-(2-(3,3-difluorocyclobutyl)-2H-tetrazol-5-yl)-2-methylphenyl)pyrazolo[1,5-a]pyridine-3-carboxamide] | 5 nM
16 | Cc1ccc(-c2nnn(C3CCOCC3)n2)cc1NC(=O)c1cnn2ccccc12 [Example 31, N-(2-methyl-5-(2-(tetrahydro-2H-pyran-4-yl)-2H-tetrazol-5-yl)phenyl)pyrazolo[1,5-a]pyridine-3-carboxamide] | 8.3 nM
17 | Cc1ccc(-c2nnn(C[C@H]3CCCCO3)n2)cc1NC(=O)c1cnn2ccccc12 (single isomer, unassigned) [Example 40, (S)-N-(2-methyl-5-(2-((tetrahydro-2H-pyran-2-yl)methyl)-2H-tetrazol-5-yl)phenyl)pyrazolo[1,5-a]pyridine-3-carboxamide or (R)-N-(2-methyl-5-(2-((tetrahydro-2H-pyran-2-yl)methyl)-2H-tetrazol-5-yl)phenyl)pyrazolo[1,5-a]pyridine-3-carboxamide] | 3.1 nM
18 | Cc1ccc(-c2nnn(C[C@H]3CC3(F)F)n2)cc1NC(=O)c1cnn2ccccc12 (single isomer, unassigned) [Example 26, (R)—N-(5-(2-((2,2-difluorocyclopropyl)methyl)-2H-tetrazol-5-yl)-2-methylphenyl)pyrazolo[1,5-a]pyridine-3-carboxamide or (S)—N-(5-(2-((2,2-difluorocyclopropyl)methyl)-2H-tetrazol-5-yl)-2-methylphenyl)pyrazolo[1,5-a]pyridine-3-carboxamide] | 2.4 nM
19 | Cc1ccc(-c2nnn(C[C@@H]3CC3(F)F)n2)cc1NC(=O)c1cnn2ccccc12 (single isomer, unassigned) [Example 25, (S)—N-(5-(2-((2,2-difluorocyclopropyl)methyl)-2H-tetrazol-5-yl)-2-methylphenyl)pyrazolo[1,5-a]pyridine-3-carboxamide or (R)—N-(5-(2-((2,2-difluorocyclopropyl)methyl)-2H-tetrazol-5-yl)-2-methylphenyl)pyrazolo[1,5-a]pyridine-3-carboxamide] | 7.6 nM
20 | Cc1ccc(-c2nnn(C3CN(S(=O)(=O)C(F)(F)F)C3)n2)cc1NC(=O)c1cnn2ccccc12 [Example 182] | 4 nM
21 | Cc1ccc(-c2nnn([C@H]3C[C@H](C(F)(F)F)C3)n2)cc1NC(=O)c1cnn2ccccc12 [Example 24, N-(2-methyl-5-(2-((1r,3r)-3-(trifluoromethyl)cyclobutyl)-2H-tetrazol-5-yl)phenyl)pyrazolo[1,5-a]pyridine-3-carboxamide or N-(2-methyl-5-(2-((1s,3s)-3-(trifluoromethyl)cyclobutyl)-2H-tetrazol-5-yl)phenyl)pyrazolo[1,5-a]pyridine-3-carboxamide] | 2.1 nM
22 | Cc1ccc(-c2nnn(C3CC3)n2)cc1NC(=O)c1cnn2ccccc12 [Example 28, N-(5-(2-cyclopropyl-2H-tetrazol-5-yl)-2-methylphenyl)pyrazolo[1,5-a]pyridine-3-carboxamide] | 9.1 nM
23 | Cc1ccc(-c2nnn(C3CC4(CCC4)C3)n2)cc1NC(=O)c1cnn2ccccc12 [Example 4, N-(2-methyl-5-(2-(spiro[3.3]heptan-2-yl)-2H-tetrazol-5-yl)phenyl)pyrazolo[1,5-a]pyridine-3-carboxamide] | 2.6 nM
24 | Cc1ccc(-c2nnn(C3CC(F)(F)C3)n2)cc1NC(=O)c1cnn2ccc(N3CCOCC3)cc12 [Example 79, N-(5-(2-(3,3-difluorocyclobutyl)-2H-tetrazol-5-yl)-2-methylphenyl)-5-morpholinopyrazolo[1,5-a]pyridine-3-carboxamide] | 3.9 nM
25 | Cc1ccc(-c2nnn(CC34CC(F)(C3)C4)n2)cc1NC(=O)c1cnn2ccccc12 [Example 30, N-(5-(2-((3-fluorobicyclo[1.1.1]pentan-1-yl)methyl)-2H-tetrazol-5-yl)-2-methylphenyl)pyrazolo[1,5-a]pyridine-3-carboxamide] | 2.7 nM
26 | Cc1ccc(-c2nnn([C@H]3C[C@@H](C(F)(F)F)C3)n2)cc1NC(=O)c1cnn2ccccc12 [Example 23, N-(2-methyl-5-(2-((1s,3s)-3-(trifluoromethyl)cyclobutyl)-2H-tetrazol-5-yl)phenyl)pyrazolo[1,5-a]pyridine-3-carboxamide or N-(2-methyl-5-(2-((1r,3r)-3-(trifluoromethyl)cyclobutyl)-2H-tetrazol-5-yl)phenyl)pyrazolo[1,5-a]pyridine-3-carboxamide] | 2.6 nM
